One data set deals with NCI-H292. The data set is described as follows: Cytotoxicity MTT assay, NCI-H292. The data set is classed as cell-based, human. From the text:
(§1) Table 2 below lists the IC50 values of representative working examples from the assay described and the corresponding cytotoxicity data (MTT assay).

Data set [1] is described as follows: Cell permeability flux assay using Caco-2 cells. The class given is in vitro ADME. The settings on record: human; Caco-2, 2 hours incubation.
Another data set has as its system KPL4. Nature of the data set: Cytotoxicity MTT assay, KPL4. The class given is cell-based.
Description: as §1

Another data set deals with Caco-2 cells. The data set is described as follows: Cell permeability flux assay using Caco-2 cells. To be noted: for Papp (B-A): Caco-2, 2 hours incubation; for Efflux ratio: ratio of Papp (B-A) to Papp (A-B), Caco-2. The class given is in vitro ADME.
The target of data set [2] is motor domain of the human kinesin spindle protein KSP/Eg5 (Homo sapiens (Human), UniProt P52732). Nature of the data set: Inhibition of the kinesin spindle protein KSP/Eg5 (ATPase, malachite green). The class given is biochemical. To be noted: 10 nM KSP motor domain, microtubuli, 500 μM ATP, 2 h RT. How it is done: The motor domain of the human kinesin spindle protein KSP/Eg5 (tebu-bio/Cytoskeleton Inc, No. 027EG01-XL) was incubated in a concentration of 10 nM with microtubuli (bovine or porcine, tebu-bio/Cytoskeleton Inc) stabilized with 50 μg/ml taxol (Sigma No. T7191-5MG) for 5 min at RT in 15 mM PIPES, pH 6.8 (5 mM MgCl2 and 10 mM DTT, Sigma). […] Incubation was at RT for 2 h. ATPase activity was detected by detecting the inorganic phosphate formed using malachite green (Biomol). […] The positive controls used were monastrol (Sigma, M8515-1 mg) and ispinesib (AdooQ Bioscience A10486). The individual data of the dose-activity curve are eight-fold determinations. The IC50 values are means of two independent experiments.
motor domain of the human kinesin spindle protein KSP/Eg5, sequence (P52732 18-359): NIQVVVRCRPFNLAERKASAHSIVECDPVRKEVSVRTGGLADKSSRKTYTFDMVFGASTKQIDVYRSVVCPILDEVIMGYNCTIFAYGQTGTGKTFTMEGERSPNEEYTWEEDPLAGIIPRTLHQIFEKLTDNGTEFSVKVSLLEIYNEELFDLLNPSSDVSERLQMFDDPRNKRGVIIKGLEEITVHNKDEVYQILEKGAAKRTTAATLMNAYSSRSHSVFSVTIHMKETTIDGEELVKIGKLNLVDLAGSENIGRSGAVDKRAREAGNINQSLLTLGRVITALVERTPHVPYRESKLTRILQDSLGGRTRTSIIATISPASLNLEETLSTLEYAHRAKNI

The test system of data set [3] is Raji: human Burkitt's lymphoma cells, B7H3-negative. The data set is described as follows: CTG cytotoxicity assay of anti-B7H3 ADCs, Raji. The class given is cell-based. The settings on record: 72 h incubation. Here is the method: The analysis of the cytotoxic effects of the anti-B7H3 ADCs was carried out with various cell lines:
Raji: human Burkitt's lymphoma cells, DMSZ-ACC-319, standard medium: RPMI 1640; (Biochrom; # FG 1215, with stable glutamine)+10% FCS (Biochrom; # S0415), B7H3-negative.
The cells were cultivated by the standard method as stated by the American Tissue Culture Collection (ATCC) for the cell lines in question.
The cells were cultivated according to the standard method using the growth media listed under C-1. […] In a parallel plate, the cell vitality was determined at the start of the drug treatment (day 0) using the Cell Titer Glow (CTG) Luminescent Cell Viability Assay (Promega #G7573 and #G7571). To this end, 100 μl of the […] were added per cell batch, the plates were then covered with aluminium foil, shaken on the plate shaker at 180 rpm for 2 minutes, allowed to stand on the laboratory bench for 8 minutes and then measured using a luminometer (Victor X2, Perkin Elmer). The substrate detects the ATP content in the living cells, generating a luminescence signal of which the height is directly proportional to the vitality of the cells. […] From the measured data, the IC^50 of the growth inhibition in comparison to day 0 was calculated using the DRC (dose response curve) analysis spreadsheet with a 4-parameter fit. […]

Data set [4] concerns MCF-7: human breast cancer cells, B7H3-positive. The data set is described as follows: CTG cytotoxicity assay of anti-B7H3 ADCs, MCF-7. The class given is cell-based. To be noted: MCF7, 72 h incubation, growth inhibition vs day 0.
Description: The cells were cultivated according to the standard method using the growth media listed under C-1. […] The cells were then incubated in an incubator at 37° C., and 5% carbon dioxide. In a parallel plate, the cell vitality was determined at the start of the drug treatment (day 0) using the Cell Titer Glow (CTG) Luminescent Cell Viability Assay (Promega #G7573 and #G7571). To this end, 100 μl of the substance were added per cell batch, the plates were then covered with aluminium foil, shaken on the plate shaker at 180 rpm for 2 minutes, allowed to stand on the laboratory bench for 8 minutes and then measured using a luminometer (Victor X2, Perkin Elmer). The substrate detects the ATP content in the living cells, generating a luminescence signal of which the height is directly proportional to the vitality of the cells. […] From the measured data, the IC^50 of the growth inhibition in comparison to day 0 was calculated using the DRC (dose response curve) analysis spreadsheet with a 4-parameter fit.
The mark [5] stands for this setting: Homo sapiens, NCI-H292, MTT assay.

As for `CC(C)(C)[C@H](c1cc(-c2cc(F)ccc2F)cn1Cc1ccccc1)N(CC[C@H](N)C(=O)NCCNC(=O)CNC(=O)C[C@@H](SC[C@H](N)C(=O)O)C(=O)O)C(=O)CO` (racemic) [Example M26, 4-[(2-{[2-({(2S)-2-Amino-4-[{(1R)-1-[1-benzyl-4-(2,5-difluorophenyl)-1H-pyrrol-2-yl]-2,2-dimethylpropyl}(glycoloyl)amino]butanoyl}amino)ethyl]amino}-2-oxoethyl)amino]-2-{[(2R)-2-amino-2-carboxyethyl]sulfanyl}-4-oxobutanoic acid-trifluoroacetic acid (1:1)], half-maximal inhibition with NCI-H292 (setting [5]) (IC50) required 63.8 nM. In data set [1], the Papp B→A at 2 h stood at 1.3 ×10⁻⁶ cm/s.
On to `CC(C)(C)[C@H](c1cc(-c2cc(F)ccc2F)cn1Cc1ccccc1)N(CCCN)C(=O)CSC[C@H](NC(=O)CCOCCOCCOCCOCCNC(=O)CNC(=O)CC(SC[C@@H](N)C(=O)O)C(=O)O)C(=O)O` (stereo partly shown) [Example M22], for which the IC50 was 182 nM in the data set with KPL4 (MTT assay) and 28.9 nM in the data set on NCI-H292 (MTT assay). Also, the “Papp (B-A)” value in the data set on Caco-2 cells was found to be 0.09 ×10⁻⁶ cm/s.
Take `CC(C)(C)[C@H](c1cc(-c2cc(F)ccc2F)cn1Cc1ccccc1)N(CC[C@H](N)C(=O)NC(CCC(=O)O)C(=O)O)C(=O)CO.O=C(O)C(F)(F)F` (stereo in doubt) [Example M25, N-{(2S)-2-Amino-4-[{(1R)-1-[1-benzyl-4-(2,5-difluorophenyl)-1H-pyrrol-2-yl]-2,2-dimethylpropyl}(glycoloyl)amino]butanoyl}-L-glutamic acid-trifluoroacetic acid (1:1)]: the IC50 in the data set on KPL4 (KPL4, MTT assay) came to 500 nM; in the data set on NCI-H292 (setting [5]), 500 nM. In data set [1], this compound displayed a Papp B→A at 2 h of 0.81 ×10⁻⁶ cm/s.
`CC(C)(C)[C@H](c1cc(-c2cc(F)ccc2F)cn1Cc1ccccc1)N(CC[C@H](N)C(=O)NCCNC(=O)CNC(=O)CC(SC[C@H](N)C(=O)O)C(=O)O)C(=O)CO` (stereo partly shown) [Example M2]: the concentration for half-maximal inhibition (IC50) was 163 nM with KPL4 (MTT assay) and 204 nM in the data set on NCI-H292 (MTT assay). Also, the “Papp (B-A)” value with Caco-2 cells turned out to be 0.48 ×10⁻⁶ cm/s.
For `CC(C)(C)[C@H](c1cc(-c2cc(F)ccc2F)cn1Cc1ccccc1)N(CCCN)C(=O)CSC[C@H](NC(=O)CCOCCOCCOCCOCCNC(=O)CCNC(=O)CC(SC[C@H](N)C(=O)O)C(=O)O)C(=O)O` (stereo partly shown) [Example M10], the IC50 in data set [2] came out at 0.47 nM; in the data set on KPL4 (MTT assay), 226 nM; in the data set on NCI-H292 (MTT assay), 303 nM.
Consider `CC(C)(C)[C@H](c1cc(-c2cc(F)ccc2F)cn1Cc1ccccc1)N(CC[C@H](N)C(=O)N[C@H](CNC(=O)CNC(=O)CC(SC[C@H](N)C(=O)O)C(=O)O)C(=O)O)C(=O)CO` (stereo partly shown) [Example M3], for which the IC50 is 1.52 nM in data set [2], 90 nM in the data set on KPL4 (MTT assay) and 32.1 nM in the data set with NCI-H292 (MTT assay). In addition, the “Papp (B-A)” value with Caco-2 cells came to 0.14 ×10⁻⁶ cm/s. Also, in the data set with Caco-2 cells, the Efflux ratio amounted to 1.3.
Regarding `CC(C)(C)[C@H](c1cc(-c2cc(F)ccc2F)cn1Cc1ccccc1)N(CC[C@H](N)C(=O)NCCOCCNC(=O)CC(SC[C@H](N)C(=O)O)C(=O)O)C(=O)CO` (stereo partly shown) [Example M5], the values for the IC50 (in data set [2]; with KPL4 (MTT assay); in the data set with NCI-H292 (MTT assay)) were 0.457 nM, 222 nM and 79.4 nM, respectively. Moreover, the “Papp (B-A)” value in the data set with Caco-2 cells came out at 2.03 ×10⁻⁶ cm/s. The Efflux ratio with Caco-2 cells was determined as 26.5.
Turning to `CC(C)(C)[C@H](c1cc(-c2cc(F)ccc2F)cn1Cc1ccccc1)N(CC[C@H](N)C(=O)NCCC(=O)N[C@@H](CCC(=O)O)C(=O)O)C(=O)CO` [Example M23, N-{(2S)-2-Amino-4-[{(1R)-1-[1-benzyl-4-(2,5-difluorophenyl)-1H-pyrrol-2-yl]-2,2-dimethylpropyl}(glycoloyl)amino]butanoyl}-beta-alanyl-L-glutamic acid-trifluoroacetic acid (1.1)], the IC50 in the data set with KPL4 (KPL4, MTT assay) was 500 nM; with NCI-H292 (setting [5]) it was 500 nM.
In the case of `CC(C)(C)[C@H](c1cc(-c2cc(F)ccc2F)cn1Cc1ccccc1)N(CCCN)C(=O)CO` [M09, N-(3-Aminopropyl)-N-{(1R)-1-[1-benzyl-4-(2,5-difluorophenyl)-1H-pyrrol-2-yl]-2,2-dimethylpropyl}-2-hydroxyacetamide], the IC50 in data set [3] and in data set [4] was 0.03 nM throughout.

(Values after US11071788B2, “Antibody drug conjugates of kinesin spindel protein (KSP) inhibitors with antiB7H3-antibodies” (BAYER PHARMA AKTIENGESELLSCHAFT, priority 2015, dated 2021).)
